The values that follow come from US20160348148A1, “MICROWELL PLATE FOR HIGH-THROUGHPUT DETECTION AND APPLICATION THEREOF” (SHANGHAI JIAOTONG UNIVERSITY, priority 2013, published 2016).

Where two headings read alike, the source gives them in different places.

Usually IC50 stands for the concentration that inhibits the measured activity by half.

Test [1] addresses T1, hCBS (Homo sapiens, UniProt P35520).
T1 construct: made in house
T1 sequence (P35520 1-551): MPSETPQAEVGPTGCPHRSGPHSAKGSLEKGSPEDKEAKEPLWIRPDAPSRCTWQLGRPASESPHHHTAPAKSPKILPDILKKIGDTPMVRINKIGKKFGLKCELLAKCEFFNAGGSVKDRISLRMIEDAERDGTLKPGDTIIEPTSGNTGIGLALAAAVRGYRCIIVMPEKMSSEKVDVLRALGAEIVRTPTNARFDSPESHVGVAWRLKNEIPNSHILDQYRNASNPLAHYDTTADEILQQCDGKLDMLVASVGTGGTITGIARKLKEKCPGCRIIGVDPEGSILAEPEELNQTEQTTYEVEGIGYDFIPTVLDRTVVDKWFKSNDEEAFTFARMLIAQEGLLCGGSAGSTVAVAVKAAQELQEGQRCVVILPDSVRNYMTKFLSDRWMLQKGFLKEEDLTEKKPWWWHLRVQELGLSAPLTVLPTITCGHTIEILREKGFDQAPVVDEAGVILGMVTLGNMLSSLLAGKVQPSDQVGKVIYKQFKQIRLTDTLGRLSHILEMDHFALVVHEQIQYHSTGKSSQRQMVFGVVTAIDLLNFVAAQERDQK
Description: High-throughput screening of hCBS enzymatic reaction inhibitors (H2S detection with DTNB in microwell plate). It is filed as biochemical.

For test [2], the target named is T2, hDDC (Homo sapiens, UniProt P20711).
T2 construct: made in house
T2 sequence (P20711 1-480): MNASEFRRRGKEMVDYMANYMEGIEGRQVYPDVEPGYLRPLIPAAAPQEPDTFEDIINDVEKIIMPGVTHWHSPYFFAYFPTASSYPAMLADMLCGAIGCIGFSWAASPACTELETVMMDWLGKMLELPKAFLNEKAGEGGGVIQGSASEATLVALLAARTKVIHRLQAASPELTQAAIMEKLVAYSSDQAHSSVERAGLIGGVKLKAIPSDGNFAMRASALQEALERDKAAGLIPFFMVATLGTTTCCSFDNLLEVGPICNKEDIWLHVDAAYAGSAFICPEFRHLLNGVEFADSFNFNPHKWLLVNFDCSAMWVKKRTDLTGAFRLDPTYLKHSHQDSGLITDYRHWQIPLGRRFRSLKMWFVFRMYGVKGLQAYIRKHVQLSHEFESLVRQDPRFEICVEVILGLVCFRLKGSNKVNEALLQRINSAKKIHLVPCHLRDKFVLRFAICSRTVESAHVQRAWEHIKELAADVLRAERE
Description: IC50 to hDDC (specificity test, coupled enzyme assay). It is filed as biochemical. The protocol: By referring to the experiment method in Assay Drug Dev Technol. […] Smithson, IC50 of the 9 compounds to hDDC was determined.

Where [3] appears, read: 100 nM hCBS, 4 mM L-Cys, 4 mM D,L-HCys, pH 8.6, 60 min at 37° C., read-out: IC50 to hCBS.

For the compound `CCCCCCCCCCCCCCCC[N+](C)(C)CCN(Cc1ccc(OC)cc1)c1ncccn1` [Compound 2], the IC50 in test [1] (setting [3]) worked out at 8 µM; in test [2] (read-out: IC50 to hDDC), 16 µM.

As to `CCN(CC)c1ccc(C(=C2C=CC(=[N+](CC)CC)C=C2)c2ccc(N(CC)CC)cc2)cc1` [Compound 3], the IC50 in test [1] (setting [3]) is 15 µM; in test [2] (read-out: IC50 to hDDC), 25 µM. In the case of `CC1CCN(C2=C(Cl)C(=O)c3ccccc3C2=O)CC1` [Compound 5], the IC50 in test [1] (setting [3]) worked out at 20 µM; in test [2] (read-out: IC50 to hDDC), 300 µM. The matching figures for `COc1ccc2c(NCCCCCCNc3c4ccccc4nc4cc(OC)ccc34)c3ccccc3nc2c1` [Compound 6]: 30 µM and 110 µM.

Regarding `N=C(N)NCCCS(=O)(=O)Nc1ccc(Nc2c3ccccc3nc3cc([N+](=O)[O-])ccc23)cc1` [Compound 7], the half-inhibitory concentration (IC50) came out at 40 µM in test [1] (setting [3]) and 60 µM in test [2] (read-out: IC50 to hDDC). With `C/C1=C2/[N]([Co][OH])[C@H]([C@H](CC(N)=O)[C@@]2(C)CCC(=O)NC[C@@H](C)OP(=O)(O)OC2[C@@H](CO)O[C@H](n3cnc4cc(C)c(C)cc43)[C@H]2O)[C@]2(C)N=C(/C(C)=C3N=C(/C=C4N=C1[C@@H](CCC(N)=O)C\4(C)C)[C@@H](CCC(N)=O)[C@]\3(C)CC(N)=O)[C@@H](CCC(N)=O)[C@]2(C)CC(N)=O` (stereo partly shown) [Compound 8, Hydroxocobalamin, reference compound], the values for the IC50 in test [1] and in test [2] were 35 µM and 150 µM, respectively. As to `Cn1ncnc2c(=O)n(C)c(=O)nc1-2` [Compound 9], the IC50 in test [1] (setting [3]) was 12 µM.
